Experimental data as given in patent publication US20210330611A1, “THERAPY FOR NEUROLOGICAL DISEASES/DISORDERS” (priority 2020, published 2021).
Counter-ions that a name gives are not always drawn. Like-named read-outs stand apart in the source and are kept apart here.

Legend:
[1] = test system: fibrin-induced microglia activation; test: Image-based assay of fibrin-induced microglia activation (HTS and dose response); assay type: cell-based, rat; settings: for inhibition at 10 µM: Rattus norvegicus, Microglia, read-out: Fibrin % inhibition
[2] = test system: LPS-induced microglia activation; test: Image-based assay of LPS-induced microglia activation (HTS and dose response); assay type: cell-based, rat; settings: for inhibition at 10 µM: Rattus norvegicus, Microglia, read-out: LPS % inhibition
[3] = test system: fibrin- and LPS-induced microglia activation; test: cells; assay type: cell-based, rat
primary rat microglia [4] = test: Cell toxicity (dead cells, size <150 μm2) in LPS assay
primary rat microglia [5] = test: Cell toxicity (dead cells, size <150 μm2) in coated fibrin (cFib) assay;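 further: share of dead cells sized under 150 µm2 at 10 µM in fibrin-stimulated microglia HTS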
[6] = primary microglia HTS, fibrin stimulation, activation = cell size >800 μm2
[7] = 48 h, primary microglia HTS, LPS stimulation, activation = cell size >800 μm2
[8] = quadrant by fibrin and LPS inhibition in HTS of 1907 compounds
[9] = primary microglia HTS, LPS stimulation, toxicity = cell size <150 μm2
[10] = primary microglia HTS, fibrin stimulation, toxicity = cell size <150 μm2
[11] = primary HTS, 10 μM, fibrin-stimulated primary microglia
[12] = primary HTS, 10 μM, LPS-stimulated primary microglia
[13] = primary HTS, 10 μM, LPS assay, dead cells size <150 μm2
[14] = primary HTS, 10 μM, fibrin assay, dead cells size <150 μm2
[15] = primary microglia HTS, fibrin stimulation, increased cell size (>800 μm^2) as marker of activation
[16] = 48 h, primary microglia HTS, LPS stimulation, increased cell size (>800 μm^2) as marker of activation
[17] = primary microglia HTS, LPS stimulation, decreased size (<150 μm^2) as marker of toxicity
[18] = primary microglia HTS, fibrin stimulation, decreased size (<150 μm^2) as marker of toxicity
[19] = primary microglia HTS, 10 μM, fibrin-stimulated, cell size >800 μm^2 as marker of activation
[20] = primary microglia HTS, 10 μM, LPS-stimulated, cell size >800 μm^2 as marker of activation
[21] = HTS of 1907 compounds, quadrant by fibrin and LPS inhibition
[22] = primary microglia HTS, 10 μM, LPS assay, cell size <150 μm^2 as marker of toxicity
[23] = primary microglia HTS, 10 μM, fibrin assay, cell size <150 μm^2 as marker of toxicity

CC(C)CC(N)=O [Isovaleramide]
inhibition at 10 µM [1, 6]: -10%
inhibition at 10 µM [2, 7]: 1%
Quadrant (FIG. 5b) [3, 8]: Q4
LPS % cell toxicity (primary rat microglia [4]; [9]): 0%
Fibrin % cell toxicity (primary rat microglia [5]; [10]): 1%

COc1ccc(O)c(C(C)(C)C)c1 [Butylated Hydroxyanisole]
Fibrin % inhibition [1, 11]: −17%
LPS % inhibition [2, 12]: 26%
Quadrant (FIG. 5b) ([3]; primary HTS, 10 μM): Q4
LPS % cell toxicity (primary rat microglia [4]; [13]): 0%
Fibrin % cell toxicity (primary rat microglia [5]; [14]): 1%

NC(=O)CCCCC1CCSS1 (stereo not shown) [Lipoamide]
inhibition at 10 µM [1, 6]: -18%
inhibition at 10 µM [2, 7]: 8%
Quadrant (FIG. 5b) [3, 8]: Q4
LPS % cell toxicity (primary rat microglia [4]; [9]): 0%
Fibrin % cell toxicity (primary rat microglia [5]; [10]): 0%

CCOc1ccccc1OCCN[C@H](C)Cc1ccc(OC)c(S(N)(=O)=O)c1 [Tamsulosin]
inhibition at 10 µM [1, 15]: 20%
inhibition at 10 µM [2, 16]: 59%
Quadrant (FIG. 5b) [3, 8]: Q1
LPS % cell toxicity (primary rat microglia [4]; [17]): 2%
Fibrin % cell toxicity (primary rat microglia [5]; [18]): 1%

CC(=O)OCC1=C(C(=O)O)N2C(=O)[C@@H](NC(=O)CSc3ccncc3)[C@H]2SC1 [Cefapirin]
inhibition at 10 µM [1, 11]: -26%
inhibition at 10 µM [2, 12]: 7%
Quadrant (FIG. 5b) ([3]; primary HTS, 10 μM): Q4
LPS % cell toxicity (primary rat microglia [4]; [13]): 0%
Fibrin % cell toxicity (primary rat microglia [5]; [14]): 0%

CN1C(CCl)Nc2cc(Cl)c(S(N)(=O)=O)cc2S1(=O)=O (stereo not shown) [Methyclothiazide]
inhibition at 10 µM [1, 15]: 25%
inhibition at 10 µM [2, 16]: 17%
Quadrant (FIG. 5b) [3, 8]: Q4
LPS % cell toxicity (primary rat microglia [4]; [17]): 0%
Fibrin % cell toxicity (primary rat microglia [5]; [18]): 1%

COC(=O)C(N)CS (stereo not shown) [Mecysteine Hydrochloride]
inhibition at 10 µM [1, 15]: 20%
inhibition at 10 µM [2, 16]: 22%
Quadrant (FIG. 5b) [3, 8]: Q4
LPS % cell toxicity (primary rat microglia [4]; [17]): 0%
Fibrin % cell toxicity (primary rat microglia [5]; [18]): 1%

C[n+]1cc2c3c(ccc2c2ccc4cc5c(cc4c21)OCO5)OCO3
Fibrin % inhibition [1, 15]: 24%
LPS % inhibition ([2]; primary microglia HTS, LPS stimulation, increased cell size (>800 μm^2) as marker of activation): 101%
Quadrant (FIG. 5b) [3, 8]: Q1
LPS % cell toxicity (primary rat microglia [4]; [17]): 55%
Fibrin % cell toxicity (primary rat microglia [5]; [18]): 0%

Cc1cnc(NC(=O)C2=C(O)c3ccccc3S(=O)(=O)N2C)s1 [Meloxicam]
inhibition at 10 µM [1, 15]: -1%
inhibition at 10 µM [2, 16]: 20%
Quadrant (FIG. 5b) [3, 8]: Q4
LPS % cell toxicity (primary rat microglia [4]; [17]): 0%
Fibrin % cell toxicity (primary rat microglia [5]; [18]): 1%

O=C(O)c1cc(=O)c2ccccc2o1 [Chromocarb]
inhibition at 10 µM [1, 11]: -7%
inhibition at 10 µM [2, 12]: 5%
Quadrant (FIG. 5b) ([3]; primary HTS, 10 μM): Q4
LPS % cell toxicity (primary rat microglia [4]; [13]): 0%
Fibrin % cell toxicity (primary rat microglia [5]; [14]): 1%

NC(=O)NC(=O)Cc1ccccc1 [Phenacemide]
inhibition at 10 µM [1, 15]: -9%
inhibition at 10 µM [2, 16]: 66%
Quadrant (FIG. 5b) [3, 8]: Q1
LPS % cell toxicity (primary rat microglia [4]; [17]): 1%
Fibrin % cell toxicity (primary rat microglia [5]; [18]): 1%

O=C(O)c1ccccc1OP(=O)(O)O [Fosfosal]
inhibition at 10 µM [1, 6]: -29%
inhibition at 10 µM [2, 7]: 16%
Quadrant (FIG. 5b) [3, 8]: Q4
LPS % cell toxicity (primary rat microglia [4]; [9]): 1%
Fibrin % cell toxicity (primary rat microglia [5]; [10]): 0%

NC(N)=O [Urea]
Fibrin % inhibition [1, 19]: −14%
LPS % inhibition [2, 20]: 20%
Quadrant (FIG. 5b) [3, 21]: Q4
LPS % cell toxicity (primary rat microglia [4]; [22]): 0%
Fibrin % cell toxicity (primary rat microglia [5]; [23]): 1%

CCN(CCCCOC(=O)c1ccc(OC)c(OC)c1)C(C)Cc1ccc(OC)cc1 (stereo not shown) [Mebeverine]
inhibition at 10 µM [1, 15]: -11%
inhibition at 10 µM [2, 16]: 7%
Quadrant (FIG. 5b) [3, 8]: Q4
LPS % cell toxicity (primary rat microglia [4]; [17]): 0%
Fibrin % cell toxicity (primary rat microglia [5]; [18]): 0%

CO/N=C(\C(=O)N[C@@H]1C(=O)N2C(C(=O)OC(C)OC(C)=O)=C(COC(N)=O)CS[C@H]12)c1ccco1 (stereo partly shown) [Cefuroxime Axetil]
inhibition at 10 µM [1, 11]: 17%
inhibition at 10 µM [2, 12]: 13%
Quadrant (FIG. 5b) ([3]; primary HTS, 10 μM): Q4
LPS % cell toxicity (primary rat microglia [4]; [13]): 0%
Fibrin % cell toxicity (primary rat microglia [5]; [14]): 1%

C[C@]12C/C(=C/O)C(=O)C[C@@H]1CC[C@@H]1[C@@H]2CC[C@@]2(C)[C@H]1CC[C@]2(C)O [Oxymetholone]
inhibition at 10 µM [1, 15]: -18%
inhibition at 10 µM [2, 16]: -7%
Quadrant (FIG. 5b) [3, 8]: Q4
LPS % cell toxicity (primary rat microglia [4]; [17]): 0%
Fibrin % cell toxicity (primary rat microglia [5]; [18]): 1%

CCOC(=O)CC(SP(=S)(OC)OC)C(=O)OCC (stereo not shown) [Malathion]
inhibition at 10 µM [1, 15]: -8%
inhibition at 10 µM [2, 16]: 8%
Quadrant (FIG. 5b) [3, 8]: Q4
LPS % cell toxicity (primary rat microglia [4]; [17]): 0%
Fibrin % cell toxicity (primary rat microglia [5]; [18]): 0%

N=C(N)/N=C(\N)N1CCOCC1 [Moroxydine Hydrochloride]
inhibition at 10 µM [1, 15]: -22%
inhibition at 10 µM [2, 16]: 4%
Quadrant (FIG. 5b) [3, 8]: Q4
LPS % cell toxicity (primary rat microglia [4]; [17]): 0%
Fibrin % cell toxicity (primary rat microglia [5]; [18]): 1%

CC(=O)OC(C)C[N+](C)(C)C (stereo not shown) [Methacholine]
inhibition at 10 µM [1, 15]: 2%
inhibition at 10 µM [2, 16]: 9%
Quadrant (FIG. 5b) [3, 8]: Q4
LPS % cell toxicity (primary rat microglia [4]; [17]): 0%
Fibrin % cell toxicity (primary rat microglia [5]; [18]): 1%

CCCCC1(COC(=O)CCC(=O)O)C(=O)N(c2ccccc2)N(c2ccccc2)C1=O [Suxibuzone]
inhibition at 10 µM [1, 19]: 25%
inhibition at 10 µM [2, 20]: 23%
Quadrant (FIG. 5b) [3, 21]: Q4
LPS % cell toxicity (primary rat microglia [4]; [22]): 0%
Fibrin % cell toxicity (primary rat microglia [5]; [23]): 1%

CN(C)CCCN1c2ccccc2Sc2ccccc21 [Promazine]
inhibition at 10 µM [1, 15]: 46%
inhibition at 10 µM [2, 16]: 117%
Quadrant (FIG. 5b) [3, 8]: Q1
LPS % cell toxicity (primary rat microglia [4]; [17]): 64%
Fibrin % cell toxicity (primary rat microglia [5]; [18]): 1%

C[C@@H]1CN([C@H]2CC[C@](C#N)(c3ccc(F)cc3)CC2)CC[C@]1(C(=O)O)c1ccccc1 [Levocabastine]
inhibition at 10 µM [1, 6]: 7%
inhibition at 10 µM [2, 7]: 4%
Quadrant (FIG. 5b) [3, 8]: Q4
LPS % cell toxicity (primary rat microglia [4]; [9]): 0%
Fibrin % cell toxicity (primary rat microglia [5]; [10]): 1%

NC(=O)c1cc[n+](CC2=C(C(=O)O)N3C(=O)[C@@H](NC(=O)[C@@H](c4ccccc4)S(=O)(=O)[O-])[C@H]3SC2)cc1 [Cefsulodin Sodium]
inhibition at 10 µM [1, 11]: 3%
inhibition at 10 µM [2, 12]: 14%
Quadrant (FIG. 5b) ([3]; primary HTS, 10 μM): Q4
LPS % cell toxicity (primary rat microglia [4]; [13]): 0%
Fibrin % cell toxicity (primary rat microglia [5]; [14]): 0%

COc1ccc(C(CN(C)C)C2(O)CCCCC2)cc1 (stereo not shown) [Venlafaxine, Venlafaxine Hydrochloride]
Fibrin % inhibition [1, 19]: 3%
LPS % inhibition [2, 20]: 20%
Quadrant (FIG. 5b) [3, 21]: Q4
LPS % cell toxicity (primary rat microglia [4]; [22]): 0%
Fibrin % cell toxicity (primary rat microglia [5]; [23]): 1%

CC1=CC(=O)c2ccccc2C1=O [Menadione]
inhibition at 10 µM [1, 15]: 113%
inhibition at 10 µM [2, 16]: 123%
Quadrant (FIG. 5b) [3, 8]: Q2
LPS % cell toxicity (primary rat microglia [4]; [17]): 62%
Fibrin % cell toxicity (primary rat microglia [5]; [18]): 87%

CC[n+]1c(-c2ccccc2)c2cc(N)ccc2c2ccc(N)cc21 [Homidium Bromide]
inhibition at 10 µM [1, 15]: 84%
inhibition at 10 µM [2, 16]: 103%
Quadrant (FIG. 5b) [3, 8]: Q2
LPS % cell toxicity (primary rat microglia [4]; [17]): 9%
Fibrin % cell toxicity (primary rat microglia [5]; [18]): 17%

CCCCCCCCCCCCCCCC[N+](C)(C)CCN(Cc1ccc(OC)cc1)c1ncccn1 [Thonzonium Bromide]
inhibition at 10 µM [1, 19]: -1%
inhibition at 10 µM [2, 20]: 19%
Quadrant (FIG. 5b) [3, 21]: Q4
LPS % cell toxicity (primary rat microglia [4]; [22]): 1%
Fibrin % cell toxicity (primary rat microglia [5]; [23]): 0%

C[C@]12CCC(=O)C=C1C=C[C@@H]1[C@@H]2CC[C@@]2(C)[C@H]1CC[C@@]21CCC(=O)O1 [Canrenone]
inhibition at 10 µM [1, 11]: -10%
inhibition at 10 µM [2, 12]: 19%
Quadrant (FIG. 5b) ([3]; primary HTS, 10 μM): Q4
LPS % cell toxicity (primary rat microglia [4]; [13]): 0%
Fibrin % cell toxicity (primary rat microglia [5]; [14]): 1%

CC(C)C[C@H]1C(=O)N2CCC[C@H]2[C@]2(O)O[C@](NC(=O)[C@@H]3C=C4c5cccc6[nH]c(Br)c(c56)C[C@H]4N(C)C3)(C(C)C)C(=O)N12 [Bromocriptine Mesylate]
inhibition at 10 µM [1, 11]: 26%
inhibition at 10 µM [2, 12]: 24%
Quadrant (FIG. 5b) ([3]; primary HTS, 10 μM): Q4
LPS % cell toxicity (primary rat microglia [4]; [13]): 0%
Fibrin % cell toxicity (primary rat microglia [5]; [14]): 1%

Nc1ncnc2c1ncn2[C@@H]1O[C@H](CO)[C@@H](O)[C@@H]1O [Vidarabine]
inhibition at 10 µM [1, 19]: -3%
inhibition at 10 µM [2, 20]: 14%
Quadrant (FIG. 5b) [3, 21]: Q4
LPS % cell toxicity (primary rat microglia [4]; [22]): 0%
Fibrin % cell toxicity (primary rat microglia [5]; [23]): 1%

Cc1cccc(C)c1NC(=O)C(C)N (stereo not shown) [Tocainide]
inhibition at 10 µM [1, 19]: -25%
inhibition at 10 µM [2, 20]: 0%
Quadrant (FIG. 5b) [3, 21]: Q4
LPS % cell toxicity (primary rat microglia [4]; [22]): 0%
Fibrin % cell toxicity (primary rat microglia [5]; [23]): 1%

CN1C(=O)CCS(=O)(=O)C1c1ccc(Cl)cc1 (stereo not shown) [Chlomezanone, Chlormezanone]
Fibrin % inhibition [1, 11]: −52%
LPS % inhibition [2, 12]: 12%
Quadrant (FIG. 5b) ([3]; primary HTS, 10 μM): Q4
LPS % cell toxicity (primary rat microglia [4]; [13]): 0%
Fibrin % cell toxicity (primary rat microglia [5]; [14]): 1%
